Structures are written as SMILES. pIC50: −log10 of the molar value. In brackets after ≈: the same amount, converted by molar mass.

A word on the solubility: it is how much of the substance goes into solution per volume. Low values mean a poorly soluble substance, high ones a readily soluble substance. A word on the inhibition: it is the share of the control response that was lost under treatment. In general, pIC50 refers to −log10 of the IC50, conventionally taken in molar units.

Data set [1] is described as follows: Aqueous solubility in FaSSIF. It counts as physicochemical. The protocol: Aqueous solubility was measured by equilibration of compounds with fasted state simulated intestinal fluid (FaSSIF) and quantified spectrophotometrically.
Preparation of blank FaSSIF: 0.21 g of sodium hydroxide (NaOH) pellets, 1.97 g of dihydrogen sodium phosphate (NaH2PO4.2H2O) and 3.09 g of sodium chloride (NaCl) were dissolved in 400 mL of deionised water. The pH was adjusted to 6.5 using 1 M hydrochloric acid and further deionised water added to a final volume of 500 mL.
Preparation of FaSSIF: 0.056 g of SIF Powder (containing sodium taurocholate and lecithin) (Pharses A G) was dissolved in 25 mL of blank FaSSIF and stirred until the powder was completely dissolved. The solution was allowed to stand for 2 hours during which it became opalescent; it was used within 24 hours. The final solution composition was characterised as follows: • Sodium taurocholate: 3 mM • Lecithin: 0.75 mM • Osmolarity: 270±10 mOsmol • pH: 6.5
The optical density was measured at the end of the incubation period for test compounds and a reference used to determine solubility. In brief, two samples were prepared for each determination: a reference sample consisting of a stock solution of test compound in DMSO diluted in system solution (a phosphate free, low absorption buffer) and propanol; and a test sample (prepared in triplicate) consisting of 0.5 mL FaSSIF spiked with test compound at 0.2 mM. Each sample was incubated at room temperature for 16 hours with constant shaking at 250 rpm. At the end of the incubation period, 0.3 mL of each sample was filtered through a pION filter plate (PION, Woburn MA), diluted 1:1 with propanol and scanned using UV spectrophotometry at Amax ([…]) using a Spectra Max Plus—Version 2.1000 (Molecular Devices, Sunnyvale, CA), with pSOL Explorer solubility determination software (pION, Woburn, MA).
FaSSIF solubility was calculated using the following formula:
[formula] • wherein: • “OD” is the optical density; • “Cr” is the concentration of the reference (33.4 μM); and • “molecular weight” is for the test compound (e.g., 381.44 for ABD735).

Data set [2] addresses hERG (Homo sapiens (Human), UniProt Q12809). Kind of data set: hERG Ion Channel binding assay (3H astemizole displacement). The conditions noted are these: human, membranes of HEK293 cells stably expressing hERG, pH 7.4, probe 3H astemizole (1.5 nM); 30 μM; displacement of 3H astemizole, hERG-HEK293 membranes. The protocol:
(§1) The activity of the compounds against the hERG ion channel was tested using a binding assay in stably transfected Human Embryonic Kidney cells (hERG-HEK293). hERG-HEK293 cells were cultured in MEM medium (Invitrogen)+10% FBS, glutamine and non-essential amino acids at 37° C. To prepare membranes, cells were homogenised on ice, centrifuged at 650×g for 10 minutes at +4° C., and the resulting supernatant centrifuged at 48000×g for 10 minutes at +4° C. The pellet was resuspended in ice-cold 50 mM Tris-HCl buffer, 5 mM KCl (pH 8.5) and stored frozen in aliquots until use.
(§2) For binding assays, membranes were thawed, re-suspended in assay buffer (10 mM HEPES pH 7.4, 0.1% BSA, 5 mM potassium chloride, 0.8 mM magnesium chloride, 130 mM sodium chloride, 1 mM sodium-EGTA, 10 mM glucose) and incubated with ^3H astemizole (1.5 nM), and with or without test compound at 25° C. for 60 minutes. Binding was determined following filtration of the membranes and washing in Tris-HCl buffer by scintillation counting of ^3H astemizole.
(§3) The degree of binding of compounds to the hERG ion channel (%) was obtained by measuring the binding of ^3H astemizole and its displacement by test compound. A value of 0% indicates no binding and a value of 100% indicates complete displacement of the radiolabelled ligand.
In general terms: Block of hERG is tested as a sign of cardiac risk.

The target of data set [3] is hERG ion channel (Homo sapiens (Human), UniProt Q12809). The description is as above. The protocol:
as §1, §2, §3

The subject of data set [4] is Thp1 human monocytic cells. Kind of data set: Thp1 Monocyte ATP Production Assay (ATPlite). Format: cell-based. The conditions noted are these: Homo sapiens, THP-1; Thp1 cells, 24 hour incubation; 9-point concentration range from 10 μM to 10 nM; mean of 2 independent experiments. The protocol: In vitro potency of test compounds was determined by incubation with Thp1 human monocytic cells and subsequent determination of Adenosine TriPhosphate (ATP) levels using firefly luciferase.
ATP is present in all metabolically active cells. When cells lose integrity, their ability to synthesise ATP is rapidly lost. […] See, e.g., Kang et al., 2015; Jiang et al., 2013. Levels of ATP can be monitored using a system based on firefly (Photinus pyralis) luciferase (see, e.g., Auld et al., 2009) using commercially available kits. A system known as ATPlite™ was using to measure effects of the test compounds on cellular viability in vitro. This one-step assay system is an adenosine triphosphate (ATP) monitoring system based on the production of light caused by the reaction of ATP from the cells with added luciferase and D-luciferin, as illustrated in the reaction scheme below:
Thp1 cells were plated at 112500 cells per well in 125 μL RPMI-1640 (no glucose) with 1% FBS in 96-well plates. Test compounds were prepared as 100 mM solutions in DMSO. These stock solutions were diluted in DMSO and then diluted 1000× in culture medium (RPMI) before being added directly to the wells so as to give the desired final compound concentration. After a 24 hour incubation at 37° C./5% CO2, ATPLite™ (Perkin Elmer) was added to each well (1:10 v/v, 10 μL). The plate was then incubated at room temperature for 5 minutes and the emitted light was quantified on Viewlux with a measurement time of 0.3 seconds and binning 4×4.
The average results for each test compound were expressed as a percent (%) of the average control value reflecting cell viability. The average values across the concentrations tested were then plotted and the IC50 for was calculated by fitting the data to a 4-parameter IC50 equation using software from Graf it (Erithacus Software). Each experiment was repeated twice and the data are presented as the mean IC50 from both experiments.
In general terms: Cellular ATP, detected with luciferase, serves as a proxy for viable cell number.

Data set [5] has as its target CYP3A4 (Homo sapiens (Human), UniProt P08684). Put plainly: Human Cytochrome P450 Inhibition Assay (Bactosomes). The conditions noted are these: recombinant Bactosomes, 10 minutes. Format: in vitro ADME. As to the method: (§4) The ability of test compounds to inhibit five of the most relevant cytochrome P450 enzymes was measured by determination of the activity of cytochrome P450 enzymes in recombinant cytochrome preparations, called Bactosomes (Cypex Ltd, Dundee, Scotland UK DD2 1 NH), in the presence of a specific probe substrate. Bactosomes are a highly efficient and cost-effective source of recombinant CYP450s which have a higher specific activity of enzyme compared to other sources, such as liver microsomes. […] The following CYP450 isoforms were assayed: CYP1A2, CYP2C9, CYP2C19, CYP2D6 and CYP3A4. The study of CYP450 inhibition potential in Bactosomes is accepted as a valuable model permitting rapid prediction of potential drug-drug interactions in vivo (see, e.g., Weaver et al., 2003).
(§5) Bactosomes were obtained from a commercial source (Cypex, Scotland, UK). Test compounds were incubated with Bactosomes at 6 concentrations. Samples were incubated for 10 minutes, after which the reaction was stopped and the samples analysed by LC-MS/MS Multiple Reaction Monitoring (MRM) for the presence/amount of substrate probe.
(§6) CYP450 enzymes (final protein 75 pmol/mL for CYP1A2; 12.5 pmol/mL for CYP2C19; and 25 pmol/mL for CYP2C9, 2D6 and 3A4), 0.1 M phosphate buffer pH 7.4, probe and test compound (final concentration 50, 15.8, 5, 1.58, 0.5 and 0.158 μM; diluted from 10 mM stock solution to give a final DMSO concentration of 1%) were pre-incubated at 37° C. for 5 minutes. The reaction was initiated by the addition of 20 μL of 10 mM NADPH in phosphate buffer. The final incubation volume was 200 μL. The following control inhibitors were used for each CYP450 inhibition assay: CYP1A2: α-naphthoflavone; CYP2C9: sulfaphenazole; CYP2C19: tranylcypromine; CYP2D6: quinidine; CYP3A4: ketoconazole.
(§7) Each compound was incubated for 10 minutes at 37° C. The reactions were stopped by the addition of methanol (final composition 1:1, aqueous: methanol). The incubation plates were shaken, chilled at […] for 2 hours, and centrifuged at 3500 rpm for 15 minutes at 4° C. to precipitate the protein.

In data set [6] the target is CYP2D6 (Homo sapiens (Human), UniProt P10635). Described as above. The conditions noted are these: recombinant Bactosomes, 10 minutes. Format: in vitro ADME. As to the method: as §4, §5, §6, §7
Data set [7] addresses CYP1A2 (Homo sapiens (Human), UniProt P05177). Described as above. Format: in vitro ADME. The conditions noted are these: recombinant enzyme. As to the method: as §4, §5, §6, §7
The target in data set [8] is CYP2C19 (Homo sapiens (Human), UniProt P33261). Described as above. It counts as in vitro ADME. The conditions noted are these: recombinant Bactosomes, 10 minutes. The protocol: as §4, §5, §6, §7
For data set [9], the target named is CYP2C9 (Homo sapiens (Human), UniProt P11712). The data set is described as above. The conditions noted are these: recombinant Bactosomes, 10 minutes. Format: in vitro ADME. As to the method: as §4, §5, §6, §7
Data set [10] is described as follows: Rodent Pharmacokinetics Studies. It counts as in vivo, rat. Particulars: rats. The text has this:
Absorption and metabolic stability were studied using an in vivo pharmacokinetics assay.
[…] Test compounds were formulated in 0.5% carboxymethylcellulose (CMC)/0.1% Tween-80 for administration via the oral route, or in 5% DMSO/10% solutol in saline for administration via the intravenous route. For compound HMC-C-01-A the oral administration was formulated in 2% dimethylacetamide/20% hydroxypropyl-β-cyclodextrin in water. Animals were given free access to food throughout the study except for fasting overnight and until 2 hours post dose on the day of dosing.
Blood samples were taken from the retro-orbital plexus at the following time points and placed in microtubes containing 20% K2EDTA solution:
Oral Dosing: predose; 0.25, 0.5, 1, 2, 4, 6, 8, 12 and 24 hours post dose.
Blood samples were centrifuged to obtain plasma, which was transferred to a separate container and frozen at −20° C.
For analysis, samples were thawed at room temperature and prepared by protein precipitation with acetonitrile spiked with internal standard (500 ng/mL glipizide) in the ratio 1:4 with plasma.
The pharmacokinetic parameters for the test compounds were calculated by Phoenix WinNonlin version 8.0 (Certara, CA) using standard non-compartmental methods. Peak plasma concentrations (Cmax) and time of the peak plasma concentration (Tmax) were the observed values. The area under the plasma concentration-time curve (AUC) was determined by use of the linear trapezoidal rule up to the last measurable concentration (AUClast) and thereafter by extrapolation of the terminal elimination phase to infinity (AUCinf). The elimination phase half-life (t1/2) was calculated as 0.693/kel.

Chain of CYP2D6 (P10635 whole entry): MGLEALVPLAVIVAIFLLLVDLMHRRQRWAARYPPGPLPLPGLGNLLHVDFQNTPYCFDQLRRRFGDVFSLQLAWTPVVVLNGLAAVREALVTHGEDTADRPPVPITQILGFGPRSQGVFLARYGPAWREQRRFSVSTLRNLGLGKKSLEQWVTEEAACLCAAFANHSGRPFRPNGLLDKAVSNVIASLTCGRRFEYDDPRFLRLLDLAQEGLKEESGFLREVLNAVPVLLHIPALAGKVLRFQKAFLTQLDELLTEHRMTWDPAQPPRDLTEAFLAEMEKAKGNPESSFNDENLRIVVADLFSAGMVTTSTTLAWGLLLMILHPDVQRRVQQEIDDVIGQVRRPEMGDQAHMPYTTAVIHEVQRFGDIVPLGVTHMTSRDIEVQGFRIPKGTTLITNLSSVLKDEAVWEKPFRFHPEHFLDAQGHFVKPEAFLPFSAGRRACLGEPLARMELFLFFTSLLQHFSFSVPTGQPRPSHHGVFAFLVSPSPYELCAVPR
Chain of CYP3A4 (P08684 whole entry, canonical isoform): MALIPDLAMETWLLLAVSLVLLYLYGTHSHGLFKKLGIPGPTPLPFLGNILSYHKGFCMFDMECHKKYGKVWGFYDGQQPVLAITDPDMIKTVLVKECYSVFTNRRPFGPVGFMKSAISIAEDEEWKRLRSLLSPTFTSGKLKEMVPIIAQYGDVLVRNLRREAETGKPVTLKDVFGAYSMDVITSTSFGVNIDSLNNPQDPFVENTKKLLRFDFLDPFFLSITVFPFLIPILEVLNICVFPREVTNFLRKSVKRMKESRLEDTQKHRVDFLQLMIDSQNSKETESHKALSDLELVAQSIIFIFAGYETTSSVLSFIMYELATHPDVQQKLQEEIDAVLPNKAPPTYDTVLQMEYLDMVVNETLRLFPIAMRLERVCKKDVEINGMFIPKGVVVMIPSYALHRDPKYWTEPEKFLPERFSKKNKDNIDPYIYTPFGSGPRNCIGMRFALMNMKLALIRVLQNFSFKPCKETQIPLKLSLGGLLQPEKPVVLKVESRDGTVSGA
Chain of CYP2C9 (P11712 whole entry): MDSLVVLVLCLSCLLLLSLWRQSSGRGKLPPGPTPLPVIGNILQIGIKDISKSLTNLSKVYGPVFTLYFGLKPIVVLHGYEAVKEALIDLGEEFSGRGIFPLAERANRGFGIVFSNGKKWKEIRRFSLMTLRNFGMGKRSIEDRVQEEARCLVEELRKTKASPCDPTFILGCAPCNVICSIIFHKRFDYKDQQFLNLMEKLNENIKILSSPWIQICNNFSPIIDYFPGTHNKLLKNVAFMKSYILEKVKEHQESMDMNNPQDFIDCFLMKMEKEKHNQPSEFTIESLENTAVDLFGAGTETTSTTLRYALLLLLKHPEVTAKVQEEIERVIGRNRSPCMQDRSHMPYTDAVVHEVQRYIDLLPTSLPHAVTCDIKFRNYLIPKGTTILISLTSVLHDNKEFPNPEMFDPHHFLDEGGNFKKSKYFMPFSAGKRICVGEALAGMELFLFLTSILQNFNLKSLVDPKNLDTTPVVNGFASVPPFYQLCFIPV
Chain of CYP1A2 (P05177 whole entry): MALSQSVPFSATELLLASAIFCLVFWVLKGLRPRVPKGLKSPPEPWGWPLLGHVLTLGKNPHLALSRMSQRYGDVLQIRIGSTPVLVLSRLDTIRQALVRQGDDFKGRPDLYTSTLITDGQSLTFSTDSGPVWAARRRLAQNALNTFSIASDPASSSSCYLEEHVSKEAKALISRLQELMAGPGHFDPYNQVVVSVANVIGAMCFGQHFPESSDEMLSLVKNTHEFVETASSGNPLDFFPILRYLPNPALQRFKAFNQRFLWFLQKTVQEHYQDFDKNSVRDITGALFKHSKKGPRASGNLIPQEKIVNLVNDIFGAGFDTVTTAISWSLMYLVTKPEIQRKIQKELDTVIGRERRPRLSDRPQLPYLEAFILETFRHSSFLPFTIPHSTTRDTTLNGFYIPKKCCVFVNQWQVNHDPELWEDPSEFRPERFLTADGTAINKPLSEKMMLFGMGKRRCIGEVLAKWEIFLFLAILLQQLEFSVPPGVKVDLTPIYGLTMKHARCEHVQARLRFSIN
Chain of CYP2C19 (P33261 whole entry): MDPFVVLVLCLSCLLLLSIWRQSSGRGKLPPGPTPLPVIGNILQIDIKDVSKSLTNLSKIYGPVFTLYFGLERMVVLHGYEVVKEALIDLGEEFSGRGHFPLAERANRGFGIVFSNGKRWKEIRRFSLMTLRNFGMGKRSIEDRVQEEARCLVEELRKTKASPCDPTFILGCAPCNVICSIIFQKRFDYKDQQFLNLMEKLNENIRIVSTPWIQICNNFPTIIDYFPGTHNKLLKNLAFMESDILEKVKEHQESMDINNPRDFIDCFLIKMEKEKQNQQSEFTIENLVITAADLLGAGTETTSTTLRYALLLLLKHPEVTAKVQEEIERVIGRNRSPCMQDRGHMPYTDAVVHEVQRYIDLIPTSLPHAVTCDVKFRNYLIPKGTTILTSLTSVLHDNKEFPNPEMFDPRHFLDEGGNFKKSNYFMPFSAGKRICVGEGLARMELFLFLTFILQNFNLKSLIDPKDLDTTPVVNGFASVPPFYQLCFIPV
Chain of hERG ion channel (Q12809 whole entry): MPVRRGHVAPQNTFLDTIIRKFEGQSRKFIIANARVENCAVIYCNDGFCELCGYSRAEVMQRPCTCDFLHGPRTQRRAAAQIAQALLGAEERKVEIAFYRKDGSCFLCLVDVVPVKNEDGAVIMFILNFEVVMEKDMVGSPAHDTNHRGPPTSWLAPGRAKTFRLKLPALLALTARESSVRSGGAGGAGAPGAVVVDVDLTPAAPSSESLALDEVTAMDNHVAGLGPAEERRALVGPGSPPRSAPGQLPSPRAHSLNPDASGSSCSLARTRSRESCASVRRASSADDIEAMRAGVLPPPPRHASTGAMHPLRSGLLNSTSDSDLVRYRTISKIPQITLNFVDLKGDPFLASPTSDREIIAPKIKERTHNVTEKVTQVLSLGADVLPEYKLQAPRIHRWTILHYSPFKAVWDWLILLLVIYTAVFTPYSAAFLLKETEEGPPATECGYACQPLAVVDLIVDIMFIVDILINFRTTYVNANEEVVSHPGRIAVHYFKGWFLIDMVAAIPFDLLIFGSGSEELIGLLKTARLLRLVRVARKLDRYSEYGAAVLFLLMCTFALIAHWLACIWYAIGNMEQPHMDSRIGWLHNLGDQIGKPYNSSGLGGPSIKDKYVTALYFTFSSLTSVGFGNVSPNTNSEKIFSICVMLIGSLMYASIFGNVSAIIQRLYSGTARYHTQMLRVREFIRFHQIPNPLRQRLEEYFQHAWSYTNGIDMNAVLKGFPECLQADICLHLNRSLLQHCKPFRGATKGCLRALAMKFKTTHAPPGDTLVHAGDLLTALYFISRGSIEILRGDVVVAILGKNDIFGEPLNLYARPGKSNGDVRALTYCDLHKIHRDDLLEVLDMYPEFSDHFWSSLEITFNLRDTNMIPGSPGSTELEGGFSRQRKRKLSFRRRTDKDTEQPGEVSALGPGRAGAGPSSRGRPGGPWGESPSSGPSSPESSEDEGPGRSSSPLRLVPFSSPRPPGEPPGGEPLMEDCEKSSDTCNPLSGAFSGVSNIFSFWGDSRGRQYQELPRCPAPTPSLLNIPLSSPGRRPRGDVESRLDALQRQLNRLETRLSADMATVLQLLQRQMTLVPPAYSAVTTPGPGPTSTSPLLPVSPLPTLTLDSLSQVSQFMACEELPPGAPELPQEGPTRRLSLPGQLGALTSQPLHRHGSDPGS
Chain of hERG (Q12809 whole entry): as above

For the compound `CC(=O)N1CCC(C(C)S(=O)(=O)c2ccc(-c3ccc(F)cc3F)cc2)CC1` (centres unmarked) [NASMP-17, 1-(4-(1-((2′,4′-Difluoro-[1,1′-biphenyl]-4-yl)sulfonyl)ethyl)piperidin-1-yl)ethan-1-one], the “solubility (in words)” value in data set [1] was “particularly good solubility”. The compound further showed a solubility at 16 h in data set [1] (kinetic from dmso stock, pH 6.5, 16 hours, room temperature) of 77 µg/mL (≈ 189 µM). The inhibition at 60 min, 30 µM in [2] stood at 14%. The “cardiac safety profile, hERG (in words)” value in data set [3] is “particularly positive profile”. This compound also showed a negative-log IC50 (pIC50) in data set [4] of 5.34.
Take `CC1(O)CCC(NS(=O)(=O)c2ccc(-c3cc(F)c(F)cc3F)cc2)CC1` (centres unmarked) [HMC-C-10-B, reference compound]: the negative logarithm of the IC50 (pIC50) in [5] is 5.04; in [6] it was under 4.80; in [7], under 4.80; in data set [8] it was 5.07; in data set [9], 5.62.
On to `CC1(O)CCC(NS(=O)(=O)c2ccc(-c3ncc(Cl)cc3C#N)cc2)CC1` (centres unmarked) [HMC-N-05-A, reference compound], for which, in data set [10] (5% DMSO/10% solutol in saline both routes (footnote 1)), the T1/2 stood at 48 min. Also, the “Bioavail, F” value in [10] (5% DMSO/10% solutol in saline for both oral and intravenous routes (footnote 1)) amounted to 88%. Also, the “i.v. AUC” value in data set [10] (intravenous, 5% DMSO/10% solutol in saline (footnote 1)) came out at 891 ng/mL/min. The “p.o. AUC” value in data set [10] (oral, 5% DMSO/10% solutol in saline (footnote 1)) came to 3937 ng/mL/min. Besides, the pIC50 in [5] is under 4.30; in [6] it was under 4.30; in data set [7], 4.44; in data set [8], under 4.30; in [9], 4.57.
Regarding `CC1(O)CCC(NS(=O)(=O)c2ccc(-c3ccc(Cl)cc3C#N)c(Cl)c2)CC1` (centres unmarked) [HMC-C-11-A, reference compound], the negative-log IC50 (pIC50) is 4.92 in data set [5]; 5.03 in data set [6]; 4.96 in data set [7]; 5.29 in [8]; 5.57 in data set [9].
Take `CC1(O)CCC(NS(=O)(=O)c2ccc(-c3ccc(C#N)cc3Cl)cc2)CC1` (centres unmarked) [HMC-C-09-A, reference compound]: the negative-log IC50 (pIC50) in data set [5] is 4.48; in data set [6], under 4.30; in data set [7], 4.64; in [8], under 4.30; in data set [9] it was 4.47.

Source of the values: patent US12162836B2, “N-acyl-{4-[(4-aryl-phenyl)sulfonylmethyl]piperidine} compounds and their therapeutic use” (Modern Biosciences Limited, priority 2019, dated 2024).
